In patent publication US20240391931A1 (Bristol-Myers Squibb Company, priority 2021, published 2024):

Legend:
Assay type in all cases: cell-based
HER2 [1] = biological target: T1, HER2 (Homo sapiens, UniProt P04626); test: HER2 occupancy assay in BT474 cells; conditions: concentration at which 50% of HER2 is irreversible bound, read-out: BT474 HER2 Occ
T1 construct: BT474 and N87 cell lines which endogenously overexpress the HER2 wildtype (WT) protein; endogenous in cells; host or cells: BT474, N87
T1 sequence (P04626 23-1255): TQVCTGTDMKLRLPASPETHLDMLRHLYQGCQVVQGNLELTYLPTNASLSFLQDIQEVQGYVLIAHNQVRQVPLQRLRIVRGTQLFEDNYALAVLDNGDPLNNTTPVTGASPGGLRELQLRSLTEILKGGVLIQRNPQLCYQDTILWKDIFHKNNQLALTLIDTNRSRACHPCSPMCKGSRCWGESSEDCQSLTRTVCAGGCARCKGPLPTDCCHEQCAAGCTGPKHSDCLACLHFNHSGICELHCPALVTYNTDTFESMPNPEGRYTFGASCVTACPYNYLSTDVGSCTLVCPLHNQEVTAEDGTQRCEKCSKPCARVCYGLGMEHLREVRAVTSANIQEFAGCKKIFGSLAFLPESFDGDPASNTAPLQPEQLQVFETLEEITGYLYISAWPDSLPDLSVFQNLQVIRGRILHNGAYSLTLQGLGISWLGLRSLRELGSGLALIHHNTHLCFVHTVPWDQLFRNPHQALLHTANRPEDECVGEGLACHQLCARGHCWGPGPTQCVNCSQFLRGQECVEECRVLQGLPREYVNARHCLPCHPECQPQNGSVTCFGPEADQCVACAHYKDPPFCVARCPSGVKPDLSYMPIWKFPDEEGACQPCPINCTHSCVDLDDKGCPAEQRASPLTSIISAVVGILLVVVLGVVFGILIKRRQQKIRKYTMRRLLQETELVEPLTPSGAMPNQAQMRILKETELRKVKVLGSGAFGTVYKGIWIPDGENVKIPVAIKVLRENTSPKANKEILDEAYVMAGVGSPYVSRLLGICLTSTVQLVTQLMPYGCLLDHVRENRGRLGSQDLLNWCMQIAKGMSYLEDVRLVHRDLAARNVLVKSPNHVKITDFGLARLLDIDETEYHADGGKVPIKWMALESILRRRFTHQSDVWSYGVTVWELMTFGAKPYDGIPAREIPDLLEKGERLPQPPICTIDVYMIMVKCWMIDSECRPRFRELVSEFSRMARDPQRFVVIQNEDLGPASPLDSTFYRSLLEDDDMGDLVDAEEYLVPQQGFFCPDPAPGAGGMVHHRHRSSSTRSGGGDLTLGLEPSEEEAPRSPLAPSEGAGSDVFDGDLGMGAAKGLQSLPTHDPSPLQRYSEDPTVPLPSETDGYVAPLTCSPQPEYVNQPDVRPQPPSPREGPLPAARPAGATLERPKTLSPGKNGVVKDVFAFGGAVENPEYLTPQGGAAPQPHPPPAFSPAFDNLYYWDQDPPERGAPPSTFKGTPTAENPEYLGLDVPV
Method: (§1) In order to assess free HER2 protein, a biotinylated probe was utilized. BT474, N87, and Ba/F3-HER2YVMA cells were treated with test compound as described for HER2 signaling. After compound treatment, cells were washed three times with cold phosphate buffer saline (PBS, Life Technologies, Carlsbad, CA), and lysed in modified occupancy lysis buffer prepared with an irreversible biotinylated tool compound (1 μM) in 25 mM Tris pH 7.5, 150 mM NaCl, 1% Triton, and supplemented with cOmplete, EDTA-free Protease inhibitor cocktail (Roche), Phosphatase Inhibitor Cocktails 2 and 3 (Sigma-Aldrich), and 1 mM PMSF (Sigma-Aldrich).
(§2) To determine % occupancy, lysates were loaded into duplicate plates of the phospho (Tyr1248)/total ErbB2 whole cell lysate MSD kit (Meso-Scale Discovery) and incubated overnight. Plates were washed and incubation with either HER2-sulfoTag (1:50, Meso Scale Discovery) or Strep-Sulfo Tag (1:1000, Meso Scale Discovery), for detection of […]. A standard curve of untreated cells in serial dilution was included in each plate to independently fit streptavidin (Free HER2) and total HER2 MSD signals; non-specific signal (BSA control spots) was subtracted from each well. Free HER2 was then normalized by total HER2 for each sample. The results are reported as % DMSO control. The normalized data was fitted using a sigmoidal curve analysis program (Graph Pad Prism version 6) with variable Hill slope to determine EC50 values. The results are provided in Table 4, under columns titled “BT474-HER2 Occ”, “N87-HER2 Occ”, and “Ba/F3 YVMA-HER2 Occ”. HER2 Occ is the concentration of test compound at which 50% of HER2 is irreversible bound.

HER2 [2] = biological target: T1, HER2; test: HER2 occupancy assay in N87 cells; conditions: concentration at which 50% of HER2 is irreversible bound, read-out: N87 HER2 Occ
Method: as §1, §2

EGFR = EGFR (Homo sapiens, UniProt P00533); test: EGFR occupancy in N87 cells; set-up: endogenous in cells; host or cells: N87; conditions: N87 cells; concentration at which 50% of EGFR is irreversible bound; read-out: N87 EGFR Occ
Chain of EGFR (P00533 25-1210): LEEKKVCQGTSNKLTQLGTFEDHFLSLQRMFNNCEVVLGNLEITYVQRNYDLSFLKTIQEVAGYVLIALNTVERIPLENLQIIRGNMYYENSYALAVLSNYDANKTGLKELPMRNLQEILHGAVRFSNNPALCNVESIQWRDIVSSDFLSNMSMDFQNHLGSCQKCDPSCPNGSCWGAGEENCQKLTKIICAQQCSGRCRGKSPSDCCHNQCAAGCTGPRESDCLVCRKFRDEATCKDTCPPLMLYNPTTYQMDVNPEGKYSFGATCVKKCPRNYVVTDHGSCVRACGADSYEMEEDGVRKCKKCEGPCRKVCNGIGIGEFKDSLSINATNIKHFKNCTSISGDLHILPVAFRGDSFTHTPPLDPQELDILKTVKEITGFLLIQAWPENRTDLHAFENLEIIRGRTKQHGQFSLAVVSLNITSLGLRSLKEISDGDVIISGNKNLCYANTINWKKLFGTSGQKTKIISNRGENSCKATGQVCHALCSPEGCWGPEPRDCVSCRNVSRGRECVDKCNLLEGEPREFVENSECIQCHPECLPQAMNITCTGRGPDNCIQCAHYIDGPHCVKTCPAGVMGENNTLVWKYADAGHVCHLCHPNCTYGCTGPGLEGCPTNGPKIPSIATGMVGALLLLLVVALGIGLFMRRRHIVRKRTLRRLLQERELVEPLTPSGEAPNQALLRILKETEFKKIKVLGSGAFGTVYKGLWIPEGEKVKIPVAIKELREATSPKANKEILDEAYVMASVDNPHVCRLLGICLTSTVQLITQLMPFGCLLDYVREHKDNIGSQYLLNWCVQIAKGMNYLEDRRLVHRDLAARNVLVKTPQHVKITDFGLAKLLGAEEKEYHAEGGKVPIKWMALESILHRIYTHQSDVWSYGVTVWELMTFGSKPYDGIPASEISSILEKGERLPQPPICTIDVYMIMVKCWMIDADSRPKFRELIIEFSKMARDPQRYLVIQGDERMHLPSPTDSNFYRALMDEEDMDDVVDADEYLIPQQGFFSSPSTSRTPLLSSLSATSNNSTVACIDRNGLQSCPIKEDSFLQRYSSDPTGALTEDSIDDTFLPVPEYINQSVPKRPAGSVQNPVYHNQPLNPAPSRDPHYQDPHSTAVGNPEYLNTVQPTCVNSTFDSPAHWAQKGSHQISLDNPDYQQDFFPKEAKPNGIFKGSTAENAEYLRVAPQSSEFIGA
Method: In order to assess free EGFR protein, a biotinylated probe was utilized as described for HER2 occupancy. N87 cells were plated, treated, and lysed as described for HER2 occupancy method. After treatment, the cells were washed three times with cold PBS, lysed at room temperature for 1 hr in modified occupancy lysis buffer (prepared as described in section titled “HER2 Occupancy Assay”). Lysates were stored at −70° C. until further analysis. For determination of % occupancy, lysates were loaded into duplicate plates of the phospho (Tyr 1068)/total EGFR whole cell lysate kit (Meso-Scale Discovery) and incubated overnight. Plates were washed and incubated with either EGFR-sulfoTag (1:50, Meso Scale Discovery) or Strep-Sulfo Tag (1:1000, Meso Scale Discovery), for detection of free and total EGFR, respectively. BSA control spots included in MSD plates were used to subtract non-specific signal. A standard curve of untreated cells in serial dilution was included in each plate to convert streptavidin and total EGFR MSD signals into free EGFR and total EGFR. Free EGFR was normalized to total EGFR for each sample. Data, reported as % […] control, was fitted using a sigmoidal curve analysis program (Graph Pad Prism version 6) with variable Hill slope to determine EC50 values. The results are provided in Table 4, under column titled “N87-EGFR Occ”. EGFR Occ is the concentration of test compound at which 50% of EGFR is irreversible bound.

| EC50 (HER2 [1]) [nM] | EC50 (HER2 [2]) [nM] | EC50 (EGFR) [nM] | Compound |
| --- | --- | --- | --- |
| < 100 | < 100 |  | CN(C)C/C=C/C(=O)N1CCc2c(sc3ncnc(Nc4ccc(Oc5ccc6ncnn6c5)c(Cl)c4)c23)C1 [Compound 5, (E)-1-(4-((4-([1,2,4]triazolo[1,5-a]pyridin-6-yloxy)-3-chlorophenyl)amino)-5,8-dihydropyrido[4′,3′:4,5]thieno[2,3-d]pyrimidin-7(6H)-yl)-4-(dimethylamino)but-2-en-1-one] |
|  | < 100 | 100 to 350 | COc1ccc(Oc2ccc(Nc3ncnc4sc5c(c34)CCN(C(=O)/C=C/CN(C)C)C5)cc2C)cn1 [Compound 95, (E)-4-(Dimethylamino)-1-(4-((4-((6-methoxypyridin-3-yl)oxy)-3-methylphenyl)amino)-5,6-dihydropyrido[4′,3′:4,5]thieno[2,3-d]pyrimidin-7(8H)-yl)but-2-en-1-one] |
